The subject of one test is Cochliobolus sativus. To be noted: 25 ppm.
Test [1] concerns Piricularia oryzae. The format is cell-based. As to conditions: in vitro, dose 25 ppm, relative to untreated check.
The subject of a further test is Fusarium roseum. The format is cell-based. To be noted: in vitro, dose 25 ppm, relative to untreated check.
The test system of another test is Pythium ultimum. To be noted: 25 ppm.
The test system of the next test is Rhizoctonia solani. As to conditions: 25 ppm.
The next test deals with Phytophthora capsici. To be noted: 25 ppm.
Another test relates to Xanthomonas campestris. The format is cell-based. To be noted: in vitro, dose 25 ppm, relative to untreated check.
The test system of test [2] is Rhorotorularubra (R. rubra) - ATCC 2503. Kind of test: MIC test, broth two-fold serial dilution. The format is cell-based. As to conditions: complete inhibition of growth, read-out: MIC (ppm) for each compound. The protocol: (§1) Activity against certain bacteria and fungi was determined using a minimum inhibitory concentration (MIC) test, which establishes the minimum concentration of test compound required to achieve complete inhibition of growth of the test organism. An MIC value was obtained using a broth, two-fold serial dilution test performed as follows: […] A volume of the stock solution was dispensed into culture media to give an initial starting test concentration of 500 ppm compound. When the test was ready to be done, each vessel in the dilution series, except the first vessel, contained an equal volume of compound free broth. The first vessel contained twice the volume of broth with the starting concentration of test compound. One half of the broth from the first vessel was transferred to the second vessel. After being mixed, one half the resulting volume was removed from the second vessel and transferred to the third vessel. The entire cycle was repeated sufficiently to give a series of concentrations amounting to 500, 250, 125, 63, 31, 16, 8, and 4 ppm (or 25, 12.5, 6.2, 3.1, 1.6, 0.8, 0.4, 0.2), respectively. Each vessel was then inoculated with a cell suspension of the appropriate test organism. Bacteria were grown in broth and fungi on agar […] for a time and at a temperature appropriate to the species being tested. At the end of the growth period, the bacteria containing broth was vortexed to disperse the cells. In the case of fungi, the spores were harvested by pipetting water onto the slant and dislodging the spores with a sterile loop. The cell/spore suspension was standardized by controlling incubation time, temperature, and the volume of the diluent. The suspension was then used to inoculate the vessels containing the broth compound. The vessels were then incubated at the appropriate temperature. Alter the incubation, the vessels were examined for growth/no growth. The minimum inhibitory concentration (MIC) is defined as the lowest concentration of compound that results in complete inhibition of growth of the test organism. The organisms tested were bacteria Pseudomonas fluorescens (Ps.fl) - ATCC 948, Pseudomonas aeruginosa (Ps.ae) - ATCC 15442, Escherichia Coli (E.coli) - ATCC 11229, and Staphylococcus aureus (S.aur) - ATCC 6538; and fungi Aspergillus niger (A. niger) - ATCC 6275, Penicillium funiculosum (P. fun.) - ATCC 11797, Cladosporium resinae (A. res.) - ATCC 52833, Aureobasidium pullulans (A. pull.) - ATCC 9248, Cloeophyllum trabeuor (G. trab.) - ATCC 11539; and two yeasts Sacharomyces […].) - ATCC 560, and Rhorotorularubra (R. rubra) - ATCC 2503.

In test [3] the test system is Aspergillus niger (A. niger) - ATCC 6275. Kind of test: MIC test, broth two-fold serial dilution. The format is cell-based. As to conditions: ATCC6275, complete inhibition of growth, read-out: MIC (ppm) for each compound. As for the experimental part: as §1
In test [4] the test system is Pseudomonas fluorescens (Ps.fl) - ATCC 948. Kind of test: MIC test, broth two-fold serial dilution. The format is cell-based. To be noted: ATCC948, complete inhibition of growth, read-out: MIC (ppm) for each compound. The protocol:
as §1

Test [5] concerns Pseudomonas aeruginosa (Ps.ae) - ATCC 15442. The experiment in a line: MIC test, broth two-fold serial dilution. The format is cell-based. To be noted: ATCC15442, complete inhibition of growth, read-out: MIC (ppm) for each compound. As for the experimental part:
as §1

For test [6], the system named is Cladosporium resinae (A. res.) - ATCC 52833. The experiment in a line: MIC test, broth two-fold serial dilution. The format is cell-based. To be noted: Amorphotheca resinae, ATCC52833; Cl.res.; complete inhibition of growth; read-out: MIC (ppm) for each compound. As for the experimental part:
as §1

Test [7] has as its system Sacharomyces cereresae (S. cer.) - ATCC 560. The experiment in a line: MIC test, broth two-fold serial dilution. The format is cell-based. To be noted: complete inhibition of growth, read-out: MIC (ppm) for each compound. The protocol:
as §1

The test system of test [8] is Penicillium funiculosum (P. fun.) - ATCC 11797. Kind of test: MIC test, broth two-fold serial dilution. To be noted: Talaromyces funiculosus, ATCC11797, complete inhibition of growth, read-out: MIC (ppm) for each compound. The format is cell-based. The protocol: as §1
Test [9] relates to Cloeophyllum trabeuor (G. trab.) - ATCC 11539. The experiment in a line: MIC test, broth two-fold serial dilution. To be noted: complete inhibition of growth, read-out: MIC (ppm) for each compound. The format is cell-based. The protocol: as §1
Test [10] relates to Escherichia Coli (E.coli) - ATCC 11229. Kind of test: MIC test, broth two-fold serial dilution. As to conditions: ATCC11229, complete inhibition of growth, read-out: MIC (ppm) for each compound. The format is cell-based. As for the experimental part:
as §1

Test [11] deals with Aureobasidium pullulans (A. pull.) - ATCC 9248. The experiment in a line: MIC test, broth two-fold serial dilution. The format is cell-based. To be noted: ATCC9248, complete inhibition of growth, read-out: MIC (ppm) for each compound. As for the experimental part:
as §1

The subject of test [12] is Staphylococcus aureus (S.aur) - ATCC 6538. Kind of test: MIC test, broth two-fold serial dilution. The format is cell-based. As to conditions: ATCC6538, complete inhibition of growth, read-out: MIC (ppm) for each compound. As for the experimental part: as §1
Test [13] has as its system Septoria nodorum. To be noted: 25 ppm.
The subject of the next test is Botrytis cinerea. As to conditions: 25 ppm.
In a further test the test system is Phytophthora infestans. The format is in vivo. As to conditions: Pixie tomato plants, sprayed at 200 ppm before inoculation, four days after inoculation.
The subject of test [14] is Puccinia recondita (f. sp. tritici Races PKB and PLD). Kind of test: In vivo plant disease control test, wheat leaf rust (WLR). As to conditions: Fielder wheat, 200 ppm, scored after 10 days.
Test [15] concerns Erysiphe graminis (f. sp. tritici). Kind of test: In vivo plant disease control test, wheat powdery mildew (WPM).
Test [16] relates to Piricularia oryzae. The format is in vivo. As to conditions: Nato rice plants, sprayed at 200 ppm before inoculation, seven to eight days after inoculation.
For test [17], the system named is Septoria nodorum. The experiment in a line: In vivo plant disease control test, wheat glume blotch (WGB).
The test system of test [18] is Pseudoperonospora cubensis. The experiment in a line: In vivo plant disease control test, cucumber downy mildew (CDM).

Here are results for four compounds from patent EP0427484B1, “Novel benzoxazolone compounds and the use thereof as microbicides” (ROHM AND HAAS COMPANY, priority 1989, dated 1991).

≈ marks a conversion by molar mass, not a printed value.

Turning to `O=c1oc2cc(Cl)ccc2n1CC#CBr` [Y=6-Cl, X=Br, 3-(3-bromopropargyl)-6-chloro-2-benzoxazolone], the “% DISEASE CONTROL HEL” value with Cochliobolus sativus came to 50%. The “% DISEASE CONTROL PIR” value in the test with Piricularia oryzae [1] was 0%. Also, in the test with Fusarium roseum, the “% DISEASE CONTROL FUS” value came to 0%. The “% DISEASE CONTROL PRU” value with Pythium ultimum stood at 50%. In the test with Rhizoctonia solani, the “% DISEASE CONTROL RMI” value was 0%. For the same compound, the “% DISEASE CONTROL PHY” value with Phytophthora capsici was 0%. Further, the “% DISEASE CONTROL XAN” value with Xanthomonas campestris is listed as 0%. In addition, the MIC is > 25 mg/L in test [2]; 32 mg/L (≈ 112 µM) in test [3]; > 250 mg/L in test [4]; > 250 mg/L in test [5]; > 25 mg/L in test [6]; > 25 mg/L in [7]. The MIC in [8] was > 25 mg/L; in test [9] it was > 25 mg/L; in [10] it was > 250 mg/L; in [11], 32 mg/L (≈ 112 µM); in [12], > 250 mg/L. In addition, the “% DISEASE CONTROL SEP” value in the test on Septoria nodorum [13] turned out to be 0%. Also, the “% DISEASE CONTROL BOC” value in the test on Botrytis cinerea was found to be 50%.
As for `O=c1oc2cc(Cl)ccc2n1CC#CI` [Y=6-Cl, X=I, 3-(3-iodopropargyl)-6-chloro-2-benzoxazolone], the “% DISEASE CONTROL HEL” value with Cochliobolus sativus came to 100%. Besides, the “% DISEASE CONTROL PIR” value in the test with Piricularia oryzae [1] was 100%. Besides, the “% DISEASE CONTROL FUS” value with Fusarium roseum was 100%. In addition, the “% DISEASE CONTROL PRU” value in the test with Pythium ultimum is recorded as 95%. Also, in the test on Rhizoctonia solani, the “% DISEASE CONTROL RMI” value was determined as 100%. Moreover, the “% DISEASE CONTROL PHY” value with Phytophthora capsici was 100%. Besides, the “% DISEASE CONTROL XAN” value in the test with Xanthomonas campestris worked out at 0%. Also, the MIC is ≤ 1 mg/L in test [2]; < 0.13 mg/L in [3]; 16 mg/L (≈ 48 µM) in test [4]; > 250 mg/L in [5]; ≤ 1 mg/L in test [6]; ≤ 5 mg/L in [7]. Also, the MIC in test [8] is ≤ 1 mg/L; in test [9] it was ≤ 1 mg/L; in test [10], > 250 mg/L; in test [11], ≤ 1 mg/L; in [12] it was 16 mg/L (≈ 48 µM). Also, the “% DISEASE CONTROL SEP” value with Septoria nodorum [13] is reported as 100%. Further, in the test on Botrytis cinerea, the “% DISEASE CONTROL BOC” value is 100%.
With `O=c1oc2ccccc2n1CC#CBr` [Y=H, X=Br, 3-(3-bromopropargyl)-2-benzoxazolone], the MIC is > 25 mg/L in [2]; > 25 mg/L in test [3]; > 250 mg/L in test [4]; > 250 mg/L in test [5]; > 25 mg/L in [6]; > 25 mg/L in test [7]. Further, the MIC was > 25 mg/L in test [8]; > 25 mg/L in [9]; > 250 mg/L in [10]; > 25 mg/L in test [11]; > 250 mg/L in [12].
Regarding `O=c1oc2ccccc2n1CC#CI` [Y=H, X=I, 3-(3-iodopropargyl)-2-benzoxazolone], the “% DISEASE CONTROL HEL” value in the test on Cochliobolus sativus is recorded as 100%. The “% DISEASE CONTROL TLB” value with Phytophthora infestans amounted to 0%. For the same compound, in the test with Piricularia oryzae [1], the “% DISEASE CONTROL PIR” value came to 100%. Also, the “% DISEASE CONTROL FUS” value in the test with Fusarium roseum was 100%. Besides, the “% DISEASE CONTROL PRU” value with Pythium ultimum was determined as 100%. Moreover, the “% DISEASE CONTROL RMI” value in the test with Rhizoctonia solani worked out at 95%. In addition, in the test on Phytophthora capsici, the “% DISEASE CONTROL PHY” value is listed as 100%. Moreover, the “% DISEASE CONTROL XAN” value in the test with Xanthomonas campestris is 0%. Besides, the “% DISEASE CONTROL WLR” value in test [14] was 90%. In [15], the “% DISEASE CONTROL WPM” value is recorded as 90%. The “% DISEASE CONTROL RB” value with Piricularia oryzae [16] worked out at 95%. The MIC was ≤ 1 mg/L in [2]; < 0.13 mg/L in test [3]; > 250 mg/L in test [4]; > 250 mg/L in test [5]; ≤ 5 mg/L in test [6]; ≤ 1 mg/L in [7]. In addition, the MIC in test [8] was ≤ 1 mg/L; in [9], ≤ 0.2 mg/L; in test [10], > 250 mg/L; in test [11], 0.25 mg/L (≈ 0.836 µM); in test [12] it was > 250 mg/L. Also, the “% DISEASE CONTROL WGB” value in the test on Septoria nodorum [17] is recorded as 0%. In addition, the “% DISEASE CONTROL SEP” value in the test with Septoria nodorum [13] turned out to be 100%. Further, the “% DISEASE CONTROL CDM” value in [18] is reported as 50%. In addition, the “% DISEASE CONTROL BOC” value with Botrytis cinerea is listed as 100%.
